Source: patent US10093678B2, “Azaspiro derivatives as TRPM8 antagonists” (RaQualia Pharma Inc., priority 2014, dated 2018)

Target: T1, human TRPM8 (Homo sapiens, UniProt Q7Z2W7)
T1 construct: expressed in transfected cells; host or cells: HEK293
Test: Menthol-induced Ca2+ influx in HEK293 cells stably expressing human TRPM8
Type: cell-based
Settings: 30 microM menthol-induced Ca2+ influx, read-out: IC50 against TRPM8
Experimental: Measurement of the Menthol-Induced Ca^2+ Influx in HEK293 Cells Stably Expressing Human TRPM8
A cell-based Ca^2+ influx assay using HEK293 cells stably expressing human TRPM8 is used to identify the activity of compounds.
HEK293 cells stably expressing human TRPM8 are grown in T175 flasks at 37° C. in a 5% CO2 humidified incubator to about 80% confluence. Media composition consists of Dulbecco's Modified Eagle Medium (high glucose), 10% fetal calf serum (FCS), 100 units/mLPenicillin, 100 microg/mL Streptomycin and 600 microg/mL Geneticine. At 24 hours prior to assay, cells are seeded in poly-D-lysine coated 384-well plates (BD FALCON) at a density of 30,000 cells per well in culture medium and grown overnight in 5% CO2 at 37° C. On the assay day, growth media is removed and cells are loaded with 0.5 microM Fluo4-AM (Molecular Probes) and 0.005% Pluronic F-127 dissolved in assay buffer (Hank's balanced salt solution (HBSS), 19.4 mM HEPES pH7.4, 2.5 mM Probenecid) for 1 hour at room temperature. After washing with assay buffer, the cells are preincubated with various concentrations of the compounds for 5 min. The changes in intracellular calcium concentration by addition of 30 microM menthol are monitored by the cell imaging technology by Hamamatsu Photonics Functional Drug Screening System (FDSS).
The IC50 values for compounds of the present invention are determined from 11-point dose-response studies. Curves are generated using the average of duplicate wells for each data point. Finally, the IC50 values are calculated with the best-fit dose curve determined by XLfit (ID Business Solutions Ltd.).

T1 sequence (Q7Z2W7 whole entry): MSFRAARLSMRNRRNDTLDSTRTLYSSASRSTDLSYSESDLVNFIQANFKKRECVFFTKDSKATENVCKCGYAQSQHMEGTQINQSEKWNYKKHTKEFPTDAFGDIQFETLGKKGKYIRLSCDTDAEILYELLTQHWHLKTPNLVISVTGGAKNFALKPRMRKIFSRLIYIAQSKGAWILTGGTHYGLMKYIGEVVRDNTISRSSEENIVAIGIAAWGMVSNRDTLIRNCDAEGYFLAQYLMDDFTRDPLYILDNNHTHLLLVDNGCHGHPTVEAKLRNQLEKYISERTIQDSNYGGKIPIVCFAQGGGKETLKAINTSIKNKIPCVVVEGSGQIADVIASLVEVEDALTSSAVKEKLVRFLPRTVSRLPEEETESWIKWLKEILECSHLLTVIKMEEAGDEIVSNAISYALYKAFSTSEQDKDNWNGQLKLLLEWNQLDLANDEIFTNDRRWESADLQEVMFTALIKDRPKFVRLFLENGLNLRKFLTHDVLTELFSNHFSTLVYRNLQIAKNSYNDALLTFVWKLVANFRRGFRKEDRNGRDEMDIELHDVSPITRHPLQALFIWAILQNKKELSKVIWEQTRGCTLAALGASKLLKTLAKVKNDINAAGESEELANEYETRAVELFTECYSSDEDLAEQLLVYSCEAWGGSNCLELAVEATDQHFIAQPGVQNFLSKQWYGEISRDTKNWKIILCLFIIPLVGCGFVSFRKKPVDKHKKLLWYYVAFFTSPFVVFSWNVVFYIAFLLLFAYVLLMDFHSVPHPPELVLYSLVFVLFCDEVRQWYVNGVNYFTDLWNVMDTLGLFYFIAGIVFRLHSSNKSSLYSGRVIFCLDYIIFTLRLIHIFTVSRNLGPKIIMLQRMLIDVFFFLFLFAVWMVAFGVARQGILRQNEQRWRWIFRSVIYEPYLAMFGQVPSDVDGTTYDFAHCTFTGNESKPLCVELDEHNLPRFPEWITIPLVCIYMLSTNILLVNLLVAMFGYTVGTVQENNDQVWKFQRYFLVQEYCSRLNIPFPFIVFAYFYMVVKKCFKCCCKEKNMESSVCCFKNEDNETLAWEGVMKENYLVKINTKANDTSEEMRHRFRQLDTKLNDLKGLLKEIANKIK

| SMILES | IC50 [nM] |
| --- | --- |
| Cc1cc(C(=O)CN2C(=O)NC3(CCCCC3)C2=O)cnc1-c1ccccc1 [Example 11-2] | < 100 |
| O=C(CN1C(=O)NC2(CCC(F)(F)CC2)C1=O)c1ccc(-c2cccc3cccnc23)c(F)c1 [Example 13-21] | < 100 |
| O=C(CN1C(=O)NC2(CCCCC2)C1=O)c1ccc(-c2ccccc2CO)cc1 [Example 13-1] | < 100 |
| Cc1ccccc1-c1ccc(C(=O)CN2C(=O)NC3(CCCCC3)C2=O)cn1 [Example 9-2] | < 10 |
| Cc1cc(C(=O)CN2C(=O)NC3(CCCCC3)C2=O)c(C)n1-c1cccc(OCC2CC2)n1 [Example 3-28, 3-(2-(1-(6-(cyclopropylmethoxy)pyridin-2-yl)-2,5-dimethyl-1H-pyrrol-3-yl)-2-oxoethyl)-1,3-diazaspiro[4.5]decane-2,4-dione] | < 500 |
| Cc1cc(C(=O)CN2C(=O)NC3(CCC(F)(F)CC3)C2=O)c(C)n1-c1ccc2ccccc2n1 [Example 3-20] | < 500 |
| Cc1cc(C(=O)CN2C(=O)NC3(CCC(F)(F)CC3)C2=O)c(C)n1-c1cccc(Cl)c1 [Example 3-7] | < 100 |
| COc1ncccc1-c1ccc(C(=O)CN2C(=O)NC3(CCC(F)(F)CC3)C2=O)cc1 [Example 13-45] | < 100 |
| N#Cc1ccccc1-c1c(F)cc(C(=O)CN2C(=O)NC3(CCC(F)(F)CC3)C2=O)cc1F [Example 13-31] | < 100 |
| O=C(CN1C(=O)NC2(CCC(F)(F)CC2)C1=O)c1ccc(-n2cnc3ncccc32)cc1 [Example 5-11] | < 100 |
| O=C(CN1C(=O)NC2(CCC(F)(F)CC2)C1=O)c1ccc(-c2cncc3ccccc23)cc1 [Example 13-37] | < 10 |
| Cc1cc(C)nc(-n2c(C)cc(C(=O)CN3C(=O)NC4(CCC(F)(F)CC4)C3=O)c2C)c1 [Example 3-16] | < 100 |
| Cc1ccncc1-c1ccc(C(=O)CN2CC3(CCC(F)(F)CC3)OC2=O)cc1 [Example 13-53] | < 100 |
| Cc1cc(C(=O)CN2C(=O)NC3(CCC(F)(F)CC3)C2=O)n(C)c1-c1ccccc1 [Example 4-3] | < 100 |
| Cc1cc(-n2c(C)cc(C(=O)CN3C(=O)OC4(CC5CCC4C5)C3=O)c2C)no1 (stereo not drawn) [Example 1-4] | < 500 |
| O=C(CN1C(=O)NC2(CCC(F)(F)CC2)C1=O)c1cc2cc(-c3cccnc3)ccc2o1 [Example 13-69] | < 500 |
| N#Cc1ccccc1Cc1ccc(C(=O)CN2C(=O)NC3(CCC(F)(F)CC3)C2=O)cc1 [Example 6-120] | < 500 |
| O=C(CN1C(=O)NC2(CCC(F)(F)CC2)C1=O)c1ccc(Cc2ccccn2)cc1 [Example 6-119] | < 500 |

| SMILES | IC50 [nM] |
| --- | --- |
| O=C(CN1C(=O)NC2(CCC(F)(F)CC2)C1=O)c1ccc(-c2ccnc3ccccc23)cc1 [Example 13-43] | < 100 |
| Cc1cccnc1-c1ccc(C(=O)CN2C(=O)NC3(CCC(F)(F)CC3)C2=O)cc1 [Example 6-82] | < 500 |
| N#Cc1ncccc1-c1ccc(C(=O)CN2C(=O)NC3(CCC(F)(F)CC3)C2=O)cc1F [Example 8-4] | < 100 |
| O=C(CN1C(=O)NC2(CCC(F)(F)CC2)C1=O)c1ccc(-c2cccc3[nH]ncc23)nc1 [Example 9-14] | < 100 |
| Cc1nc(C(=O)CN2CC3(CCC(F)(F)CC3)OC2=O)c(C)n1-c1ccccc1 [Example 2-7] | < 500 |
| O=C(CN1C(=O)NC2(CCCCC2)C1=O)c1ccc(-c2nccnc2CO)cc1 [Example 7-10] | < 100 |
| Cc1cccc(-n2c(C)cc(C(=O)CN3C(=O)NC4(CCC(C(F)(F)F)CC4)C3=O)c2C)n1 (stereo not drawn) [Example 3-15] | < 100 |
| NC(=O)c1ccccc1-c1ccc(C(=O)CN2C(=O)NC3(CCC(F)(F)CC3)C2=O)cc1 [Example 6-99] | < 500 |
| O=C(CN1C(=O)NC2(CCCCC2)C1=O)c1ccc(Oc2ccccc2)cc1 [Example 5-19] | < 100 |
| O=C(CN1C(=O)NC2(CCC(F)(F)CC2)C1=O)c1ccc(-c2cnccn2)cc1 [Example 6-100] | < 500 |
| O=C1CCc2c(cccc2-c2ccc(C(=O)CN3C(=O)NC4(CCC(F)(F)CC4)C3=O)cc2)N1 [Example 6-52] | < 500 |
| Cc1ncncc1-c1ccc(C(=O)CN2C(=O)NC3(CCC(F)(F)CC3)C2=O)cc1 [Example 6-34] | < 100 |
| Cc1c(C(=O)CN2C(=O)NC3(CCC(F)(F)CC3)C2=O)nn(C)c1-c1cccnc1 [Example 4-7] | < 500 |
| O=C(CN1C(=O)NC2(CCC(F)(F)CC2)C1=O)c1ccc(-c2ccnc3[nH]ccc23)cc1 [Example 6-13] | < 100 |
| O=C(CN1C(=O)NC2(CCC(F)(F)CC2)C1=O)c1ccc(-c2cccc3[nH]ccc23)nc1 [Example 9-10] | < 10 |
| N#Cc1ccccc1-c1ccc(C(=O)CN2C(=O)NC3(CCC(F)(F)CC3)C2=O)cc1Cl [Example 13-25] | < 100 |
| Cc1ccnnc1-c1ccc(C(=O)CN2C(=O)NC3(CCC(F)(F)CC3)C2=O)c(F)c1 [Example 8-7] | < 100 |

Now from value to compound:

| IC50 [nM] | SMILES |
| --- | --- |
| < 10 | O=C(CN1C(=O)NC2(CCC(F)(F)CC2)C1=O)c1ccc(-n2c(=O)oc3ccccc32)nc1 [Example 19-14] |
| < 10 | Cc1nc2ccccc2n1-c1cnc(C(=O)CN2C(=O)NC3(CCC(F)(F)CC3)C2=O)cn1 [Example 19-33] |
| < 100 | Cc1cc(C(=O)CN2C(=O)NC3(CCCCC3)C2=O)sc1-c1ccccc1CO [Example 14-2] |
| < 100 | O=C(CN1C(=O)NC2(CCC(F)(F)CC2)C1=O)c1cnc(-n2cnc3ccccc32)cn1 [Example 19-24] |
| < 100 | Cc1cc(C(=O)CN2C(=O)NC3(CCC(F)(F)CC3)C2=O)n(C)c1-c1ccccc1F [Example 16-13] |
| < 100 | Cc1nc(C(=O)CN2C(=O)NC3(CCC(F)(F)CC3)C2=O)sc1-c1cccc2ccncc12 [Example 18-10] |
| < 100 | Cc1cc(C(=O)CN2C(=O)NC3(CCC(F)(F)CC3)C2=O)n(C)c1-c1cccc2ccncc12 [Example 16-15] |
| < 10 | O=C(CN1C(=O)NC2(CCC(F)(F)CC2)C1=O)c1ccc(-n2c(=O)oc3ccccc32)cc1 [Example 19-30] |
| < 100 | Cc1cc(C(=O)CN2C(=O)NC3(CCC(F)(F)CC3)C2=O)n(C)c1-c1ccccc1C#N [Example 16-7] |
| < 100 | Cn1c(-c2cccc(C#N)c2)cnc1C(=O)CN1C(=O)NC2(CCC(F)(F)CC2)C1=O [Example 17-3] |
| < 100 | O=C(CN1C(=O)NC2(CCC(F)(F)CC2)C1=O)c1ccc(Oc2ccccn2)nc1 [Example 20-6] |
| < 500 | Cc1cc(C(=O)CN2C(=O)NC3(CCC(F)(F)CC3)C2=O)n(C)c1-c1cccc2[nH]ncc12 [Example 16-35] |
| < 100 | Cc1nc(C(=O)CN2C(=O)NC3(CCC(F)(F)CC3)C2=O)sc1-c1cccc(C#N)c1 [Example 18-3] |
| < 500 | Cc1ccnc(Oc2ccc(C(=O)CN3C(=O)NC4(CCC(F)(F)CC4)C3=O)cc2)n1 [Example 21-7] |
| < 10 | Cc1ccncc1-c1sc(C(=O)CN2C(=O)NC3(CCC(F)(F)CC3)C2=O)nc1C [Example 18-2] |
| < 100 | Cc1c(C(=O)CN2C(=O)NC3(CCC(F)(F)CC3)C2=O)cn(C)c1-c1cccc(F)c1 [Example 16-24] |
| < 100 | Cc1cc(C(=O)CN2C(=O)NC3(CCC(F)(F)CC3)C2=O)sc1-c1cncc(C#N)c1 [Example 14-13] |
| < 500 | Cc1ncccc1-c1c(C)c(C(=O)CN2C(=O)NC3(CCC(F)(F)CC3)C2=O)cn1C [Example 16-28] |
| < 100 | Cc1sc(C(=O)CN2C(=O)NC3(CCC(F)(F)CC3)C2=O)c(C)c1-c1ccccc1C#N [Example 15-1] |
